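Exposure lasted 48 hours, with cells grown in 96-well plates and compounds tested at five concentrations. GI50: concentration for 50% inhibition of growth.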 The source made the active and inactive calls. No stated cut-off is given here; in the data, active = GI50 up to about 1.1 µM and inactive = higher.
Tests used:
Assay in all cases: inhibition of tumour cell growth, NCI panel, 48 h
OVCAR-8 = tested on: OVCAR-8
OVCAR-3 = tested on: OVCAR-3
SF-295 = tested on: SF-295
NCI-H23 = tested on: NCI-H23
HCT-116 = tested on: HCT-116
SF-539 = tested on: SF-539
Malme-3M = tested on: Malme-3M
CCRF-CEM = tested on: CCRF-CEM
NCI/ADR-RES = tested on: NCI/ADR-RES
DU-145 = tested on: DU-145
RPMI-8226 = tested on: RPMI-8226
MOLT-4 = tested on: MOLT-4
TK-10 = tested on: TK-10
K562 = tested on: K562
COLO 205 = tested on: COLO 205
HT-29 = tested on: HT-29
HL-60 = tested on: HL-60
PC-3 = tested on: PC-3
SF-268 = tested on: SF-268
SW-620 = tested on: SW-620
SK-OV-3 = tested on: SK-OV-3
HCC 2998 = tested on: HCC 2998
MDA-N = tested on: MDA-N
SN12C = tested on: SN12C
UO-31 = tested on: UO-31
OVCAR-4 = tested on: OVCAR-4
MDA-MB-231 = tested on: MDA-MB-231
786-0 = tested on: 786-0
SR = tested on: SR
LOX IMVI = tested on: LOX IMVI
SNB-19 = tested on: SNB-19
M14 = tested on: M14
MCF7 = tested on: MCF7
A498 = tested on: A498
UACC-257 = tested on: UACC-257
IGROV-1 = tested on: IGROV-1
ACHN = tested on: ACHN
MDA-MB-435 = tested on: MDA-MB-435
SK-MEL-28 = tested on: SK-MEL-28
NCI-H522 = tested on: NCI-H522
A549 = tested on: A549
HOP-92 = tested on: HOP-92
NCI-H460 = tested on: NCI-H460
SNB-75 = tested on: SNB-75
HOP-62 = tested on: HOP-62
CAKI-1 = tested on: CAKI-1
KM12 = tested on: KM12
NCI-H226 = tested on: NCI-H226
RXF 393 = tested on: RXF 393
T47D = tested on: T47D
OVCAR-5 = tested on: OVCAR-5
Hs-578T = tested on: Hs-578T
EKVX = tested on: EKVX
SK-MEL-5 = tested on: SK-MEL-5
U-251 = tested on: U-251
SK-MEL-2 = tested on: SK-MEL-2
HCT-15 = tested on: HCT-15
UACC-62 = tested on: UACC-62

Measured: GI50

CC(C)=CCN(N=O)c1ncnc2[nH]cnc12
inactive: OVCAR-8 > 100 µM | OVCAR-3 > 100 µM | SF-295 > 100 µM | NCI-H23 > 100 µM | HCT-116 > 100 µM | SF-539 > 100 µM | Malme-3M > 100 µM | CCRF-CEM > 100 µM | NCI/ADR-RES > 100 µM | DU-145 > 100 µM | RPMI-8226 88.1 µM | MOLT-4 > 100 µM | TK-10 > 100 µM | K562 73.6 µM | COLO 205 > 100 µM | HT-29 > 100 µM | HL-60 > 100 µM | PC-3 94.6 µM | SF-268 > 100 µM | SW-620 > 100 µM | SK-OV-3 > 100 µM | HCC 2998 > 100 µM | MDA-N > 100 µM | SN12C > 100 µM | UO-31 > 100 µM | OVCAR-4 89.5 µM | MDA-MB-231 > 100 µM | 786-0 > 100 µM | SR 75.3 µM | LOX IMVI 92.5 µM | SNB-19 > 100 µM | M14 > 100 µM | MCF7 > 100 µM | A498 95.1 µM | UACC-257 > 100 µM | IGROV-1 > 100 µM | ACHN > 100 µM | MDA-MB-435 > 100 µM | SK-MEL-28 > 100 µM | NCI-H522 > 100 µM | A549 > 100 µM | HOP-92 > 100 µM | NCI-H460 > 100 µM | SNB-75 54.8 µM | HOP-62 > 100 µM | CAKI-1 > 100 µM | KM12 > 100 µM | NCI-H226 > 100 µM | RXF 393 > 100 µM | T47D 94.6 µM | OVCAR-5 > 100 µM | Hs-578T > 100 µM | EKVX > 100 µM | SK-MEL-5 > 100 µM

BrCCCCCOc1ccc(-c2c3ccccc3c(-c3ccc(OCCCCCBr)cc3)c3ccccc23)cc1
inactive: OVCAR-8 > 100 µM | SF-295 > 100 µM | HCT-116 > 100 µM | SF-539 > 100 µM | CCRF-CEM > 100 µM | NCI/ADR-RES > 100 µM | DU-145 > 100 µM | RPMI-8226 > 100 µM | MOLT-4 > 100 µM | TK-10 > 100 µM | K562 > 100 µM | COLO 205 > 100 µM | HT-29 > 100 µM | HL-60 > 100 µM | PC-3 > 100 µM | SF-268 > 100 µM | SW-620 > 100 µM | SK-OV-3 > 100 µM | HCC 2998 > 100 µM | MDA-N > 100 µM | SN12C > 100 µM | UO-31 > 100 µM | U-251 > 100 µM | OVCAR-4 > 100 µM | MDA-MB-231 > 100 µM | 786-0 > 100 µM | SR > 100 µM | SNB-19 > 100 µM | M14 > 100 µM | SK-MEL-2 > 100 µM | MCF7 > 100 µM | UACC-257 > 100 µM | IGROV-1 > 100 µM | ACHN > 100 µM | MDA-MB-435 > 100 µM | SK-MEL-28 > 100 µM | A549 > 100 µM | NCI-H460 > 100 µM | SNB-75 38.5 µM | HOP-62 > 100 µM | CAKI-1 > 100 µM | KM12 > 100 µM | NCI-H226 > 100 µM | RXF 393 > 100 µM | T47D > 100 µM | UACC-62 > 100 µM | OVCAR-5 > 100 µM | Hs-578T 35.7 µM | EKVX > 100 µM | SK-MEL-5 > 100 µM
> 100 µM: HCT-15

N#Cc1c(=O)c2ccccc2n2ccccc12
inactive: OVCAR-8 > 100 µM | NCI-H23 > 100 µM | HCT-116 > 100 µM | Malme-3M > 100 µM | CCRF-CEM > 100 µM | NCI/ADR-RES > 100 µM | DU-145 > 100 µM | RPMI-8226 > 100 µM | TK-10 > 100 µM | K562 > 100 µM | COLO 205 > 100 µM | HT-29 > 100 µM | HL-60 > 100 µM | PC-3 19.7 µM | SF-268 > 100 µM | SW-620 79.8 µM | HCC 2998 > 100 µM | MDA-N > 100 µM | SN12C > 100 µM | UO-31 97.9 µM | U-251 > 100 µM | OVCAR-4 > 100 µM | MDA-MB-231 > 100 µM | 786-0 > 100 µM | SR > 100 µM | LOX IMVI > 100 µM | SNB-19 83.6 µM | SK-MEL-2 13.4 µM | A498 > 100 µM | UACC-257 > 100 µM | IGROV-1 > 100 µM | ACHN > 100 µM | MDA-MB-435 > 100 µM | SK-MEL-28 > 100 µM | NCI-H522 > 100 µM | A549 29.8 µM | HOP-92 > 100 µM | NCI-H460 > 100 µM | SNB-75 > 100 µM | CAKI-1 > 100 µM | KM12 > 100 µM | NCI-H226 24.9 µM | T47D > 100 µM | UACC-62 > 100 µM | Hs-578T > 100 µM | SK-MEL-5 > 100 µM
> 100 µM: HCT-15

Source: ChEMBL document CHEMBL1201862, “PubChem BioAssay data set” (2004)
